Experimental data published in patent US20010055569A1, “Nasal drug delivery composition” (West Pharmaceutical Services Drug Delivery & Clinical …, priority 1998, published 2001).
Converted amounts (≈) assume the structure as drawn. Where two headings read alike, the source gives them in different places.

Test: Solubility of drugs in vegetable oils (castor oil, soybean oil)
Conditions: for solubility: oil or lipid, thermodynamic from solid
Procedure: The solubility of flurbiprofen in different vegetable oils was measured by the addition of increasing quantities of the drug to an oil system and determination of the maximum amount that will dissolve by observation of the resultant solution and the onset of a cloudy nature or precipitation.

## COc1ccc2c(c1)c(CC(=O)O)c(C)n2C(=O)c1ccc(Cl)cc1 [Indomethacin]
  Solubility in castor oil: >15 < 20 mg/g
  Solubility in soybean oil: <5 mg/g

## CC(C(=O)O)c1ccc(-c2ccccc2)c(F)c1 (centres unmarked) [flurbiprofen]
Castor oil BP
  solubility: 150 mg/mL (≈ 614 mM)
Soybean oil BP
  solubility: < 50 mg/mL

## CN1CCc2cccc3c2[C@H]1Cc1ccc(O)c(O)c1-3 [Apomorphine]
Room temperature, soybean oil
  Solubility in soybean oil: <10 mg/g
